From patent US20260028330A1, “HETEROARYL CARBOXAMIDE AND RELATED GPR84 ANTAGONISTS AND USES THEREOF” (LIMINAL BIOSCIENCES LIMITED, priority 2022, published 2026)

How the values were obtained:
[1] = test system: dextran sodium sulfate-induced chronic inflammatory bowel disease model; conditions: once-daily doses of 3 and 10 mg/kg; mouse; cited from earlier work
human GPR84 receptor = biological target: T1, human GPR84 receptor (Homo sapiens, UniProt Q9NQS5); experiment: Gαi biosensor BRET assay in transfected HEK293 cells (antagonism of GPR84 agonist ZQ-16); format: cell-based; conditions: 200 nmol/L ZQ-16; for inhibition at 10 µM / inhibition at 2 µM: HEK293, single concentration; for inhibition at 10 µM: code F = 10 μM; for inhibition at 2 µM: code A = 2 μM
T1 construct: host or cells: HEK293 cells, transient transfection
T1 sequence (Q9NQS5 whole entry): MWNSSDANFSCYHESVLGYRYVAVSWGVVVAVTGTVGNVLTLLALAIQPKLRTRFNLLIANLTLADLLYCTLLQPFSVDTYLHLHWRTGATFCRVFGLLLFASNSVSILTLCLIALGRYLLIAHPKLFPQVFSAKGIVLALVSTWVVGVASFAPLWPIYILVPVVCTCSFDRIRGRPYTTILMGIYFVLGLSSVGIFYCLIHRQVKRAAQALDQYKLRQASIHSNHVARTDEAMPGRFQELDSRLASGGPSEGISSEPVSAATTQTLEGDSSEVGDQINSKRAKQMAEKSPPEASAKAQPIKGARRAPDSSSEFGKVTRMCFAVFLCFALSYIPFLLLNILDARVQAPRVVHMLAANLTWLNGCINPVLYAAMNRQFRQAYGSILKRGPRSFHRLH
Description: Background—The following assays can be used for determination of GPR84 activation in living HEK293 cells. The Gαi BRET biosensor (Gagnon et al., 2018; Gales et al., 2006. Nat Struct Mol Biol. 13, 778-86; Saulieres et al., 2012. Nat Chem Biol. 8, 622-30) allows to directly monitor GPR84-mediated activation of Gαi. The Gαi biosensor consists of a Rluc8-tagged Gαi2 subunit, a GFP10-tagged Gγ2 subunit, and an untagged Gβ1. Agonist stimulation and GPR84 activation triggers a physical separation between the RLuc8-Gαi donor and the GFP10-Gγ2 acceptor, resulting in a decrease in BRET signal whose amplitude is correlated to ligand efficacy (Gales et al., 2006). Moreover, signaling functions of GPCRs are tightly regulated by endocytosis, the targeting of receptors to endosomes and their sorting to lysosomes or recycling to the plasma membrane. The early endosomes (EEs) trafficking assay (Namkung et al., 2016. Nat Commun. 7, 12178) uses Rluc8-tagged GPR84 and Renilla GFP (rGFP) attached to the FYVE domain from human endofin/zinc finger FYVE domain-containing protein 16, which binds phosphatidylinositol 3-phosphate in EEs. Agonist stimulation of GPR84-Rluc8 leads to trafficking of the receptor to EEs, and ensuing increase of the donor concentration relative to the rGFP-FYVE acceptor anchored in the same cellular compartment, and thus results in an increase in BRET signal.
Plasmids—The cDNA clones for human GPR84 receptor, human Gαi2, Gβ1, and Gγ2 were obtained from the cDNA Resource Center (www.cdna.org). GFP10 (F64L, S147P, S202F and H231L variant of Aequorea victoria Green Fluorescent Protein) gBlocks gene fragments (Integrated DNA Technologies, IA) and linker were inserted in frame at the N-terminus of human Gγ2. Rluc8 (A55T, C124A, S130A, K136R, A143M, M185V, M253L, and S287L variant of the Renilla reniformis luciferase) gBlocks gene fragment was inserted with linkers in frame in between residues 91 and 92 of Gα2 or at the C-terminus of GPR84. The FYVE domain from human endofin (residues Q739 to K806) attached in frame at the C terminus of a humanized Renilla GFP (rGFP), were synthesized as gBlocks gene fragments.
Bioluminescence Resonance Energy Transfer (BRET) Measurement—HEK293 cells were transfected with GPR84-Rluc8 and rGFP-FYVE for the EEs trafficking biosensor or with GPR84, Gαi2-Rluc8, GFP10-Gγ2, and Gβ1 for the Gαi biosensor. The following day, transiently transfected cells were seeded in 96-well white clear bottom microplates coated with poly-D-lysine and left in culture for 24 hours. Cells were washed once with Tyrode's buffer (140 mmol/L NaCl, 1 mmol/L CaCl2, 2.7 mmol/L KCl, 0.49 mmol/L MgCl2, 0.37 mmol/L NaH2PO4, 5.6 mmol/L glucose, 12 mmol/L NaHCO3, and 25 mmol/L HEPES, pH 7.5) before performing assays in Tyrode's buffer. Test compounds were incubated with cells for 5 (Gui) or 15 (EEs) minutes at 37° C. before addition of 200 nmol/L of the GPR84 agonist ZQ-16 (2-(Hexylthio)-6-hydroxy-4(3H)-pyrimidinone) for 5 minutes at room temperature (Gui) or 30 minutes at 37° C. (EEs). The Rluc8 substrate coelenterazine 400A (Prolume, Lakeside, AZ) was added at a final concentration of 5 μmol/L and BRET readings were collected using an Infinite M1000 microplate reader (Tecan, Morrisville, NC). BRET^2 readings between Rluc8 and GFP10 or rGFP were collected by sequential integration of the signals detected in the 370 to 450 nm (Rluc8) and 510 to 540 nm (GFP10, rGFP) windows. The BRET signal was calculated as the ratio of light emitted by acceptor (GFP10, rGFP) over the light emitted by donor (Rluc8). The values were corrected to net BRET by subtracting the background BRET signal obtained in cells transfected with Rluc8 constructs alone. Ligand-promoted net BRET values were calculated by subtracting vehicle-induced net BRET from ligand-induced net BRET.

SMILES | inhibition at 10 µM (human GPR84 receptor) [%] | further results
O=c1nc(OC[C@@H]2COCCO2)cc2n1CCc1cc(C#CC3CC3)ccc1-2 [GLPG1205] | – | disease activity index score [1]: reduced; neutrophil infiltration [1]: reduced
CN(Cc1ccc(C#CC2CC2)cc1C1CC1)c1cn(CC2OCC3(CC3)CO2)nn1 [Compound I-51] | > 75 | –
Cc1cc(C#CC2CC2)ccc1N(C)C(=O)c1cnn(CC2OCC3(CC3)CO2)c1 [Compound I-105] | > 75 | IC50 (human GPR84 receptor): 300 to 1000 nM
Cc1ccc(C#CC2CC2)cc1N(C)Cc1cn(CC2OCC3(CC3)CO2)nn1 [Compound I-12, N-((1-((5,7-dioxaspiro[2.5]octan-6-yl)methyl)-1H-1,2,3-triazol-4-yl)methyl)-5-(cyclopropylethynyl)-N,2-dimethylaniline] | 25 to 50 | –
Cc1cc(C#CC2CC2)ccc1N(C)Cc1cn(CC2OCC3(CC3)CO2)nn1 [Compound I-40] | > 75 | –
Cc1cc(C#CC2CC2)ccc1OC(=O)c1cn(CC2OCC3(CC3)CO2)nn1 [Compound I-46] | 25 to 50 | –
COc1cc(C#CC2CC2)cc(NC(=O)c2cn(CC3OCC4(CC4)CO3)nn2)c1 [Compound I-98] | ≤ 25 | –
O=C(c1cn(CC2OCC3(CC3)CO2)nn1)N(c1ccc(C#CC2CC2)cc1Br)C1CC1 [Compound I-93] | – | IC50 (human GPR84 receptor): ≤ 300 nM; inhibition at 2 µM (human GPR84 receptor): > 75%
CN(c1cn(CC2OCC3(CC3)CO2)nn1)c1cc(C#CC2CC2)ccc1Cl [Compound I-8, 1-((5,7-dioxaspiro[2.5]octan-6-yl)methyl)-N-(2-chloro-5-(cyclopropylethynyl)phenyl)-N-methyl-1H-1,2,3-triazol-4-amine] | > 75 | –
CCc1ccc(C#CC2CC2)cc1N(C)C(=O)c1cn(CC2OCC3(CC3)CO2)nn1 [Compound I-104] | > 75 | IC50 (human GPR84 receptor): 300 to 1000 nM
Cc1cc(OCC(=O)N(C)C)ccc1C(=O)N(C)c1cc(C#CC2CC2)ccc1C [Compound I-27] | ≤ 25 | –
Cc1cc(C#CC2CC2)ccc1N(C(=O)c1cn(CC2OCC3(CC3)CO2)nn1)C1CC1 [Compound I-83] | – | IC50 (human GPR84 receptor): ≤ 300 nM; inhibition at 2 µM (human GPR84 receptor): > 75%
Cc1cc(C#CC2CC2)ccc1N(C)S(=O)(=O)c1cn(CC2OCC3(CC3)CO2)nn1 [Compound I-56] | > 75 | –
Cc1c(NC(=O)c2cccc(C#CC3CC3)c2)nnn1CC1OCC2(CC2)CO1 [Compound I-64] | ≤ 25 | –
Cc1cc(C#CC2CC2)cc2c1C(N(C)c1cn(CC3OCC4(CC4)CO3)nn1)CC2 (stereo not drawn) [Compound I-53] | 25 to 50 | –
Cc1ccc(C#CC2CC2)cc1NC(=O)c1cn(CC2OCC3(CC3)CO2)nn1 [Compound I-14] | ≤ 25 | –
CN(c1ccc(C#CC2CC2)cc1)c1cn(CC2OCC(C)(C)CO2)nn1 [Compound I-82] | ≤ 25 | –
Cc1ccc(C#CC2CC2)cc1N(C)C(=O)c1ccc(=O)n(CC(=O)N(C)C)c1C [Compound I-3, N-(5-(cyclopropylethynyl)-2-methylphenyl)-1-(2-(dimethylamino)-2-oxoethyl)-N,2-dimethyl-6-oxo-1,6-dihydropyridine-3-carboxamide] | ≤ 25 | –
Cc1ccc(C#CC2CC2)cc1N(C)S(=O)(=O)c1cn(CC2OCC3(CC3)CO2)nn1 [Compound I-55] | > 75 | –
CN(C)c1ccc(C#CC2CC2)cc1NC(=O)c1cn(CC2OCC3(CC3)CO2)nn1 [Compound I-102] | ≤ 25 | –
CN(C(=O)c1cn(CC2OCC3(CC3)CO2)nn1)c1cc(C#CC2CC2)ccc1Br [Compound I-44] | > 75 | IC50 (human GPR84 receptor): 300 to 1000 nM

SMILES | inhibition at 10 µM (human GPR84 receptor) [%] | further results
CN(C(=O)c1cn(CC2OCC3(CC3)CO2)nn1)c1cccc(C#CC2CC2)c1 [Compound I-23] | > 75 | IC50 (human GPR84 receptor): 300 to 1000 nM
Cc1ccc(C#CC2CC2)cc1C(=O)N(C)c1cn(CC2OCC3(CC3)CO2)nn1 [Compound I-16] | ≤ 25 | –
Cc1cc(C#CC2CC2)ccc1NCc1cn(CC2OCC3(CC3)CO2)nn1 [Compound I-39] | 25 to 50 | –
Cc1cc(F)c(C#CC2CC2)cc1NC(=O)c1cn(CC2OCC3(CC3)CO2)nn1 [Compound I-101] | ≤ 25 | –
Cc1cc(C#CC2CC2)c2c(c1)CCC2N(C)c1cn(CC2OCC3(CC3)CO2)nn1 (stereo not drawn) [Compound I-81] | – | inhibition at 2 µM (human GPR84 receptor): ≤ 25%
CN(C(=O)c1cn(CC2OCC3(CC3)CO2)cn1)c1ccc(C#CC2CC2)cc1F [Compound I-59] | – | IC50 (human GPR84 receptor): ≤ 300 nM; inhibition at 2 µM (human GPR84 receptor): > 75%
O=C(c1cn(CC2OCC3(CC3)CO2)nn1)N(c1cc(C#CC2CC2)ccc1Br)C1CC1 [Compound I-92] | – | IC50 (human GPR84 receptor): 300 to 1000 nM; inhibition at 2 µM (human GPR84 receptor): > 75%
Cc1cc(C#CC2CC2)ccc1/N=C(\OC(C)C)c1cn(CC2OCC3(CC3)CO2)nn1 [Compound I-85] | 25 to 50 | –
Cc1ccc(C#CC2CC2)cc1N(C)c1cn(CC(=O)N(C)C)nn1 [Compound I-7, 2-(4-((5-(cyclopropylethynyl)-2-methylphenyl)(methyl)amino)-1H-1,2,3-triazol-1-yl)-N,N-dimethylacetamide] | > 75 | –
Cc1ccc(C#CC2CC2)cc1/N=C(\OC(C)C)c1cn(CC2OCC3(CC3)CO2)nn1 [Compound I-87] | > 75 | –
Cc1ccc(C#CC2CC2)cc1N(C)C(=O)c1ccc(OCC(=O)N(C)C)nc1C [Compound I-2, N-(5-(cyclopropylethynyl)-2-methylphenyl)-6-(2-(dimethylamino)-2-oxoethoxy)-N,2-dimethylnicotinamide] | ≤ 25 | –
CN(C(=O)c1cn(CC2OCC3(CC3)CO2)nn1)c1ccc(C#CC2CC2)cc1Cl [Compound I-94] | – | IC50 (human GPR84 receptor): ≤ 300 nM; inhibition at 2 µM (human GPR84 receptor): > 75%
Cc1cc(C#CC2CC2)cnc1CN(C)c1cn(CC2OCC3(CC3)CO2)nn1 [Compound I-5, 1-((5,7-dioxaspiro[2.5]octan-6-yl)methyl)-N-((5-(cyclopropylethynyl)-3-methylpyridin-2-yl)methyl)-N-methyl-1H-1,2,3-triazol-4-amine] | > 75 | IC50 (human GPR84 receptor): 300 to 1000 nM
O=C(c1cn(CC2OCC3(CC3)CO2)nn1)N1CCc2c(C#CC3CC3)cccc21 [Compound I-25] | – | inhibition at 2 µM (human GPR84 receptor): ≤ 25%
Cc1ccccc1NC(=O)c1cn(CC2OCC3(CC3)CO2)nn1 [Compound I-30] | ≤ 25 | –
O=C(c1cn(CC2OCC3(CC3)CO2)nn1)N1CCCc2c(C#CC3CC3)cccc21 [Compound I-28] | 50 to 75 | –
Cc1ccc(C#CC2CC2)cc1Nc1cn(CC(=O)N(C)C)nn1 [Compound I-6, 2-(4-((5-(cyclopropylethynyl)-2-methylphenyl)amino)-1H-1,2,3-triazol-1-yl)-N,N-dimethylacetamide] | – | inhibition at 2 µM (human GPR84 receptor): ≤ 25%
CN(C)c1ccc(C#CC2CC2)cc1N(C)C(=O)c1cn(CC2OCC3(CC3)CO2)nn1 [Compound I-26] | > 75 | IC50 (human GPR84 receptor): 300 to 1000 nM
CCc1ccc(C#CC2CC2)cc1NC(=O)c1cn(CC2OCC3(CC3)CO2)nn1 [Compound I-103] | ≤ 25 | –
Cc1ccc(C#CC2CC2)cc1N(C(=O)c1cn(CC2OCC3(CC3)CO2)nn1)C(C)C [Compound I-86] | – | IC50 (human GPR84 receptor): ≤ 300 nM; inhibition at 2 µM (human GPR84 receptor): > 75%
